Data published in ChEMBL document CHEMBL4385641 (Bioorg Med Chem, 2019).

Tests used:
[1] = biological target: T1, Cannabinoid receptor 1 (Homo sapiens, UniProt P21554); experiment: Inverse agonist activity at human CB1 receptor expressed in CHOK1 cells co-expressing Galphaq16 assessed as apparent equilibrium constant after 90 secs by […]-4 AM dye-based FLIPR assay; format: cell-based
[2] = Lipophilicity, log D of compound; format: physicochemical; conditions: octanol/water
[3] = biological target: T1, Cannabinoid receptor 1; experiment: Displacement of [3H]-CP55940 from human CB1 receptor expressed in CHO cell membranes
[4] = biological target: Cannabinoid receptor 2 (Homo sapiens, UniProt P34972); experiment: Displacement of [3H]-CP55940 from human CB2 receptor expressed in CHO cell membranes
Chain of Cannabinoid receptor 2 (P34972 whole entry): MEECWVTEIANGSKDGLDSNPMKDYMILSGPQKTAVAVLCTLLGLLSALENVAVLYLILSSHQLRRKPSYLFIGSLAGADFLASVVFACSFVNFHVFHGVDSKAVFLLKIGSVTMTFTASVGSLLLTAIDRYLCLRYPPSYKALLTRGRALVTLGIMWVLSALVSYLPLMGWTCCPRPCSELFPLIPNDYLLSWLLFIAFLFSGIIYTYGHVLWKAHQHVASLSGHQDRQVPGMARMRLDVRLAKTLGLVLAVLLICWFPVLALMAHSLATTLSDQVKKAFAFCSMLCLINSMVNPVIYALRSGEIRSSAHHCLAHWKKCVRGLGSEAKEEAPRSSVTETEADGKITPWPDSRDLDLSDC

[5] = species on record: Homo sapiens; experiment: Selectivity ratio of Ki for displacement of [3H]-CP55940 from human CB2 receptor expressed in CHO cell membranes to Ki for displacement of [3H]-CP55940 from human CB1 receptor expressed in CHO cell membranes
[6] = Permeability across apical to basolateral side in MDCK-MDR1 cells at 10 uM incubated for 1 hr by mass spectrometric method; format: ADME, cell-based, Canis lupus familiaris; conditions: dog, mdck-mdr1, 1 h
[7] = Cmax in C57BL6 mouse plasma at […], po by LC-MS/MS analysis; format: ADME, organism-based; parameters: dose 2.5 mg/kg, route oral
[8] = Ratio of Cmax in brain to plasma in C57BL6 mouse at […], po by LC-MS/MS analysis; format: ADME, organism-based
[9] = Half life in C57BL6 mouse plasma at […], po by LC-MS/MS analysis; format: ADME, organism-based
[10] = Half life in human liver microsomes at 1 uM by mass mass spectrometric method; format: ADME, Microsome; conditions: for t1/2: microsomes, 1 µM
[11] = Intrinsic clearance in human liver microsomes at 1 uM incubated for up to 120 mins by mass mass spectrometric method; format: ADME, Microsome; conditions: for CLH: microsomes, 2 h, 1 µM
[12] = Drug uptake in C57BL6 mouse brain at […], po by LC-MS/MS analysis; format: ADME, organism-based; conditions: in vivo
[13] = biological target: T1, Cannabinoid receptor 1; experiment: Inverse agonist activity at human CB1 receptor expressed in CHOK1 cells co-expressing Galphaq16 assessed as inhibition of calcium mobilization after 90 secs by […]-4 AM dye-based FLIPR assay; format: functional, cell-based
[14] = Cmax in C57BL6 mouse plasma at 0.3 mg/kg, po by LC-MS/MS analysis; format: ADME, organism-based; parameters: dose 0.3 mg/kg, route oral

T1 sequence (P21554 whole entry): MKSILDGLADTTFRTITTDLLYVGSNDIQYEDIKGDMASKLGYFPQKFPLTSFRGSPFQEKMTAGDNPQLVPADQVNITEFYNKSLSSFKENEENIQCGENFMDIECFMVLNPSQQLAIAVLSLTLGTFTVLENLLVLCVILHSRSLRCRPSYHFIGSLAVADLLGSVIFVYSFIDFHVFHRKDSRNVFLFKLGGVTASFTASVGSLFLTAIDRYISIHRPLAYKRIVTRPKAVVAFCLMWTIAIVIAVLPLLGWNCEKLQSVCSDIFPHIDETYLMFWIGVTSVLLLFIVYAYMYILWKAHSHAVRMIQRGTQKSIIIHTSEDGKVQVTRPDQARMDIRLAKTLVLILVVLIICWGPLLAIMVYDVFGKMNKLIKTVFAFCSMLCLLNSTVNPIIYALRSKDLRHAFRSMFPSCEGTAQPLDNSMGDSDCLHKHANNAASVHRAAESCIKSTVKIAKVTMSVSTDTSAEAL

**Q.** Which results are given for N=C(Nc1ccc(F)cc1)NC1CCN(c2ncnc3c2nc(-c2ccccc2Cl)n3-c2ccc(Cl)cc2)CC1?
**A.** Ke(app) [1]: 300 nM; logD [2]: 4.6

**Q.** Which Ke(app) [1] does the source give for O=S(=O)(NC1CCN(c2ncnc3c2nc(-c2ccccc2Cl)n3-c2ccc(Cl)cc2)CC1)c1ccc(F)c(F)c1 here?
**A.** Its Ke(app) is 0.5 nM.

**Q.** What about the Ki [3] of the same compound?
**A.** Its Ki is 1.7 nM.

**Q.** And the Ki [4]?
**A.** Its Ki is over 10000 nM.

**Q.** And the Ratio Ki [5]?
**A.** Its Ratio Ki is over 5000.

**Q.** And the permeability [6]?
**A.** Its permeability is under 0.1%.

**Q.** And the Cmax [7]?
**A.** Its Cmax is 12 ng/mL.

**Q.** And the Ratio [8]?
**A.** Its Ratio is 0.31.

**Q.** What about the half-life [9] of the same compound?
**A.** The half-life was 5.3 h.

**Q.** With N=C(NC1CCN(c2ncnc3c2nc(-c2ccccc2Cl)n3-c2ccc(Cl)cc2)CC1)c1ccc(F)cc1 as the compound, how does the Ke(app) [1] read?
**A.** Its Ke(app) is 170 nM.

**Q.** And the Ki [3]?
**A.** Its Ki is 780 nM.

**Q.** And the Ratio Ki [5]?
**A.** The Ratio Ki was over 7.

**Q.** And the permeability [6]?
**A.** The permeability was 0.2%.

**Q.** And the t1/2 [10]?
**A.** Its t1/2 is 2.77 h.

**Q.** What about the CLH [11] of the same compound?
**A.** The CLH was 8 µL/min/mg.

**Q.** And the Cmax [7]?
**A.** The Cmax was 50 ng/mL.

**Q.** And the Ratio [8]?
**A.** Its Ratio is 0.16.

**Q.** And the half-life [9]?
**A.** The half-life was 6 h.

**Q.** And the logD [2]?
**A.** The logD was 4.1.

**Q.** What about the Drug uptake [12] of the same compound?
**A.** The Drug uptake was under 20%.

**Q.** With O=S(=O)(NC1CCN(c2ncnc3c2nc(-c2ccccc2Cl)n3-c2ccc(Cl)cc2)CC1)c1ccccc1F as the compound, how does the Ke(app) [1] read?
**A.** Its Ke(app) is 0.8 nM.

**Q.** And the Ki [3]?
**A.** The Ki was 0.38 nM.

**Q.** And the Ki [4]?
**A.** Its Ki is 8500 nM.

**Q.** And the Ratio Ki [5]?
**A.** Its Ratio Ki is 22000.

**Q.** What about the EC50 [13] of the same compound?
**A.** Its EC50 is 287 nM.

**Q.** Which Ke(app) [1] does the source give for O=C(NC1CCN(c2ncnc3c2nc(-c2ccccc2Cl)n3-c2ccc(Cl)cc2)CC1)c1ccccc1F here?
**A.** Its Ke(app) is 0.6 nM.

**Q.** And the Ki [3]?
**A.** The Ki was 0.98 nM.

**Q.** What about the Ki [4] of the same compound?
**A.** Its Ki is 6000 nM.

**Q.** And the Ratio Ki [5]?
**A.** Its Ratio Ki is 6000.

**Q.** What about the permeability [6] of the same compound?
**A.** The permeability was 0.1%.

**Q.** What about the EC50 [13] of the same compound?
**A.** The EC50 was 94.8 nM.

**Q.** With Clc1ccc(-n2c(-c3ccccc3Cl)nc3c(N4CCC(Nc5ccccn5)CC4)ncnc32)cc1 as the compound, how does the Ke(app) [1] read?
**A.** Its Ke(app) is 54 nM.

**Q.** And the Ki [3]?
**A.** The Ki was 2.4 nM.

**Q.** What about the Ki [4] of the same compound?
**A.** The Ki was 3100 nM.

**Q.** What about the Ratio Ki [5] of the same compound?
**A.** The Ratio Ki was 1300.

**Q.** And the permeability [6]?
**A.** Its permeability is 0.1%.

**Q.** What about the Cmax [7] of the same compound?
**A.** The Cmax was 38 ng/mL.

**Q.** And the Ratio [8]?
**A.** Its Ratio is 0.45.

**Q.** And the half-life [9]?
**A.** Its half-life is 7.4 h.

**Q.** For O=S(=O)(NC1CCCCC1)NC1CCN(c2ncnc3c2nc(-c2ccccc2Cl)n3-c2ccc(Cl)cc2)CC1, which Ke(app) [1] is on record?
**A.** The Ke(app) was 8 nM.

**Q.** What about the Ki [3] of the same compound?
**A.** Its Ki is 5 nM.

**Q.** And the Ki [4]?
**A.** Its Ki is 330 nM.

**Q.** What about the Ratio Ki [5] of the same compound?
**A.** Its Ratio Ki is 66.

**Q.** What about the Cmax [14] of the same compound?
**A.** The Cmax was 4 ng/mL.

**Q.** For O/N=C(\c1ccc(F)cc1)C1CCN(c2ncnc3c2nc(-c2ccccc2Cl)n3-c2ccc(Cl)cc2)CC1 (stereo in doubt; 20), which Ki [3] is on record?
**A.** The Ki was 5 nM.

**Q.** And the Ki [4]?
**A.** Its Ki is over 10000 nM.

**Q.** And the half-life at 1 µM ([10]; liver microsomes)?
**A.** The half-life at 1 µM was 1.1 h.

**Q.** And the microsomal CLint at 1 µM ([11]; liver microsomes, read-out: CLH)?
**A.** The microsomal CLint at 1 µM was 19 µL/min/mg.

**Q.** Which results are given for O=S(=O)(NC1CCN(c2ncnc3c2nc(-c2ccccc2Cl)n3-c2ccc(OC(F)F)nc2)CC1)c1ccc(F)c(F)c1?
**A.** Ke(app) [1]: 1.6 nM; Ki [3]: 3 nM; Ki [4]: 860 nM; Ratio Ki [5]: 290; t1/2 [10]: 4.57 h; CLH [11]: 5 µL/min/mg; Cmax [7]: 62 ng/mL; Ratio [8]: 0.18; half-life [9]: 1.6 h; EC50 [13]: 132 nM; Drug uptake [12]: < 20%
